Data reported in publication PMC11045757, “Group 3 medulloblastoma transcriptional networks collapse under domain specific EP300/CBP inhibition” (Nature Communications, 2024).
Where “and” joins values, the source holds several entries; their conditions need not be identical. Identical values can stand only once. Like-named read-outs stand apart in the source and are kept apart here.

Experiments:
[1] = system: HDMB03 (HDMBO3) group 3 medulloblastoma cells; assay: CellTiter-Glo dose-response growth assay; type: cell-based; conditions: Homo sapiens, HD-MB03; HDMBO3 G3MB cell growth; read-out: IC50 (nM) HDMBO3
Procedure: CellTiter-Glo assay was performed as per the manufacturer’s instructions, at the noted timepoint after compound treatment or plating. For Kelly, TE617T, RhJT, NCIH2122, NCIH650 and 143B, 500 cells were plated in normal growth media per well in a 384-well plate (Corning). HDMB03 and MB002 cells were plated in growth media at 500 cells/well in a 384-well plate. […] Cells were incubated for the noted timepoints prior to performing CellTiter-Glo assay as per the manufacturer’s instructions, and reading plates on an Envision 2104 microplate reader.

BRD4-BD1 (BRD4-1) = molecular target: T1, BRD4-BD1 (BRD4-1) (Homo sapiens, UniProt O60885); assay: Differential scanning fluorimetry (DSF) thermal shift; type: binding; conditions: DSF
T1 construct: BRD4-BD1 (residues 44-168); 6xHis (cleaved yes); host or cells: E. coli BL21 (DE3) RIL
Procedure: (§1) At OD600 of 0.6, the culture was cooled down to 18 °C and induced with 0.1 mM IPTG. After 18 h growth, the culture was harvested by centrifugation at 6000 × g for 25 min and stored at -80 °C. Harvested cell pellets were re-suspended in 50 mM Na/K phosphate buffer (pH 7.4) containing 100 mM NaCl, 40 mM imidazole, 0.01% w/v lysozyme and 0.01% v/v Triton X-100 at 4 °C for 1 h, subjected to sonication and the lysate was clarified by centrifugation (30,000 × g for 45 min at 4 °C). Proteins were purified by FPLC at 4 °C using columns and chromatography materials from GE Healthcare. […] Proteins were purified to homogeneity by size exclusion chromatography using Superdex 75 equilibrated with elution buffer (50 mM HEPES pH 7.5, 100 mM NaCl, 2 mM DTT). All BRDs eluted as monomeric protein and were of crystallization grade quality (>95% purity as judged by SDS-PAGE). Pool fractions were combined, concentrated to 10–12 mg/ml, and aliquots were flash-frozen in liquid N2 and stored at −80 °C.
(§2) DSF experiments were performed with an Applied Biosystem StepOnePlus real-time PCR system (Thermo Fisher Scientific) using 96-well format plates, assayed in quadruplicate. For thermal shift determination, 5 μM protein was mixed with 100 μM compound in 50 mM HEPES, pH 7.5, 150 mM NaCl, 2 mM DTT, 2% DMSO, 5X SYPRO Orange (Thermo Fisher Scientific) in 20 μL reaction volumes. Reaction mixtures were heated from 25 to 95 °C at 1 °C/min with fluorescence readings every 0.5 °C at 610 nm. The observed thermal shift (ΔTm) was recorded as the difference between the Tm of sample and DMSO reference wells.

EP300 bromodomain = molecular target: T2, EP300 bromodomain (Homo sapiens, UniProt Q09472); assay: as above; type: binding; conditions: DSF
T2 construct: 6xHis (cleaved yes); host or cells: E. coli BL21 (DE3) RIL
T2 sequence (Q09472 1048-1161): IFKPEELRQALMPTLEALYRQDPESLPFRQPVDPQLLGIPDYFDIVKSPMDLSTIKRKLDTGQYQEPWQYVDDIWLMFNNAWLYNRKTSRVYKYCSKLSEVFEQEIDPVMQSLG
Procedure: as §1, §2

CBP bromodomain [2] = molecular target: T3, CBP bromodomain (Homo sapiens, UniProt Q92793); assay: as above; type: binding
T3 construct: CBP (residues 1081-1197); 6xHis (cleaved yes); host or cells: E. coli BL21 (DE3) RIL
Procedure: as §1, with “After” for “At OD600 of 0.6, the culture was cooled down to 18 °C and induced with 0.1 mM IPTG. After”, “All BRDs eluted as monomeric protein and were of crystallization grade quality (>95% purity as judged by SDS-PAGE).” left out
(§3) DSF experiments were performed with an Applied Biosystem StepOnePlus real-time PCR system (Thermo Fisher Scientific) using 96-well format plates, assayed in quadruplicate. For thermal shift determination, 5 μM protein was mixed with 100 μM compound in 50 mM HEPES, pH 7.5, 150 mM NaCl, 2 mM DTT, 2% DMSO, 5X SYPRO Orange (Thermo Fisher Scientific) in 20 μL reaction volumes.

CBP bromodomain [3] = assay: as above; type: binding; conditions: ΔTm (CBP)/ΔTm(BRD4)
Procedure: as §1, with “After” for “At OD600 of 0.6, the culture was cooled down to 18 °C and induced with 0.1 mM IPTG. After”, “All BRDs eluted as monomeric protein and were of crystallization grade quality (>95% purity as judged by SDS-PAGE).” left out
as §3

[4] = molecular target: GFP-tagged CBP bromodomain (Homo sapiens, UniProt Q92793); assay: Microscale thermophoresis (MST); type: binding
Procedure: MST experiments were performed in a Monolith NT.115 Pico instrument (NanoTemper Technologies) following published procedures. […] MST traces were recorded using standard parameters: 5 s MST power off, 30 s MST power on and 5 s MST power off. Measurements were taken at -1-0 s (cold region) and 10 s (hot region) and data were analyzed using the NTAnalysis software.

[5] = 5 μM protein, 100 μM compound, three independent experiments, average ± SD

GFP-tagged CBP bromodomain, sequence (Q92793 1085-1192 limits assumed): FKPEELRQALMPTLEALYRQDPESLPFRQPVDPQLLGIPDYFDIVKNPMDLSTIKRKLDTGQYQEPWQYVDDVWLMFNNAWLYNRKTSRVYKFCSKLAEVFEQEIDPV
T3 sequence (Q92793 1081-1197): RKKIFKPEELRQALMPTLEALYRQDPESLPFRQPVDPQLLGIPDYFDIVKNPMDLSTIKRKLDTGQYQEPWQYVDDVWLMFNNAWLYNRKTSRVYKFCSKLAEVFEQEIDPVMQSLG

IC50 [1]: 271 ± 62 nM
∆Tm (°C) BRD4-1 (BRD4-BD1 (BRD4-1); [5]): 2.1 ± 0.96 °C
ΔTm (°C) BRD4-BD1 (BRD4-BD1 (BRD4-1); Figure 3A, BRD4-BD1): 2.1 °C
∆Tm (°C) EP300 (EP300 bromodomain; [5]): 9.2 ± 1.5 °C
ΔTm (°C) EP300 (EP300 bromodomain; Figure 3B, EP300): 9.2 °C
∆Tm (°C) CBP (CBP bromodomain [2]; DSF, 5 μM protein, 100 μM compound, three independent experiments, average ± SD): 9.9 ± 1.02 °C
ΔTm (°C) CBP (CBP bromodomain [2]; Figure 3A, DSF, CBP bromodomain): 9.9 °C
ΔTm (°C) CBP (CBP bromodomain [2]; Figure 3B, DSF, CBP): 9.9 °C
DSF ΔTm (°C) (CBP bromodomain [2]; Figure 3C, DSF (values equal CBP column)): 9.9 °C
Kd ([4]; Figure 3C, MST, read-out: MST Kd): 116 nM
Response (Dose Response Curve) ([4]; MST raw response, Dose 1.52588e-10, single replicate run, listed as iCBP-4): 892.093 and 891.258 and 891.615
Response (Dose Response Curve (Outliers)) ([4]; MST raw response, Dose 3.05176e-10, point marked as outlier and left out of the fit): 895.82
Response (Dose Response Curve) ([4]; MST raw response, Dose 3.05176e-10, single replicate run, listed as iCBP-4): 892.272 and 892.058
Response (Dose Response Curve) ([4]; MST raw response, Dose 6.10352e-10, single replicate run, listed as iCBP-4): 892.269 and 892.744 and 892.22
Response (Dose Response Curve) ([4]; MST raw response, Dose 1.2207e-9, single replicate run, listed as iCBP-4): 892.399 and 891.675 and 892.288
Response (Dose Response Curve) ([4]; MST raw response, Dose 2.44141e-9, single replicate run, listed as iCBP-4): 891.725 and 891.585 and 891.994
Response (Dose Response Curve) ([4]; MST raw response, Dose 4.88281e-9, single replicate run, listed as iCBP-4): 891.567 and 892.575 and 891.165
Response (Dose Response Curve) ([4]; MST raw response, Dose 9.76563e-9, single replicate run, listed as iCBP-4): 891.493 and 891.567 and 891.238
Response (Dose Response Curve) ([4]; MST raw response, Dose 1.95313e-8, single replicate run, listed as iCBP-4): 891.688 and 891.424 and 891.76
Response (Dose Response Curve) ([4]; MST raw response, Dose 3.90625e-8, single replicate run, listed as iCBP-4): 892.161 and 891.262 and 889.541
Response (Dose Response Curve) ([4]; MST raw response, Dose 7.8125e-8, single replicate run, listed as iCBP-4): 890.263 and 890.555 and 890.434
Response (Dose Response Curve) ([4]; MST raw response, Dose 1.5625e-7, single replicate run, listed as iCBP-4): 890.147 and 890.553 and 889.395
Response (Dose Response Curve) ([4]; MST raw response, Dose 3.125e-7, single replicate run, listed as iCBP-4): 888.926 and 888.984 and 889.107
Response (Dose Response Curve) ([4]; MST raw response, Dose 6.25e-7, single replicate run, listed as iCBP-4): 888.767 and 888.447 and 889.182
Response (Dose Response Curve) ([4]; MST raw response, Dose 1.25e-6, single replicate run, listed as iCBP-4): 887.998 and 889.672 and 887.288
Response (Dose Response Curve) ([4]; MST raw response, Dose 2.5e-6, single replicate run, listed as iCBP-4): 887.993 and 886.376 and 888.472
Response (Dose Response Curve) ([4]; MST raw response, Dose 5e-6, single replicate run, listed as iCBP-4): 887.809 and 888.569 and 888.97
Kd ([4]; MST, single replicate run, target clGFP-CBPBRD, TargetConcentration 5e-8, MST-Power Medium, unit inferred, read-out: Kd (Fit Results, Fit Model: Kd)): 142 nM and 167 nM and 39.1 nM
Bound (Fit Results) ([4]; fitted MST response of bound state, single replicate run, target clGFP-CBPBRD 5e-8, listed as iCBP-4): 887.684 and 887.776 and 888.434
Unbound (Fit Results) ([4]; fitted MST response of unbound state, single replicate run, target clGFP-CBPBRD 5e-8, listed as iCBP-4): 892.098 and 891.946 and 891.879
loss of binding affinity (CBP) ([4]; relative to CCS1477): ~ 40 fold
Kd ([4]; three independent MST experiments, average ± SD, read-out: Kd (nM) CBP): 116 ± 68 nM
Compound: COC1CCC(n2c(C3CCCC(=O)N3c3cc(C(F)(F)F)cc(C(F)(F)F)c3)nc3cc(-c4c(C)noc4C)ccc32)CC1 (stereo not drawn) [Compound 4]
Ratio CBP/BRD4 of ∆Tm (CBP bromodomain [3]): 4.7
